According to US12655125B2 (SIRONAX LTD., priority 2020, dated 2026):

The molecules below were run on HT-29 cells (assay: HT29 Cells 0FBS Assay In Vitro (TNF-α/SMAC mimetic/zVAD-FMK induced necroptosis, CellTiter-Glo cell viability)). Details: Homo sapiens; HT-29 cells, FBS free medium, TNF-α (10 ng/ml), SMAC mimetic (6 uM), zVAD-FMK (10 μM), 20 hours; geometric mean EC50; read-out: Cell activity (EC50) of Compounds 117-281.
Format: cell-based
Procedure, shortened: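 HT-29 cells (5,000/well, seeded overnight) in serum-free McCoy's 5A were stimulated with TNF-α 10 ng/ml, SMAC mimetic 6 μM and zVAD-FMK 10 μM to induce necroptosis. Compound added as 10-point 3-fold series for 20 h at 37° C. CellTiter-Glo luminescence gives viability; EC50 is geometric mean of duplicate dose-responses.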

Row | Structure (SMILES) | EC50 [nM]
1 | Cc1n[nH]c(N)c1-c1cc(OC2CN(C(=O)N3N=CC[C@H]3c3cc(F)cc(F)c3)C2)c(F)cn1 [compound 205, (S)-(3-((2-(5-amino-3-methyl-1H-pyrazol-4-yl)-5-fluoropyridin-4-yl)oxy)azetidin-1-yl)(5-(3,5-difluorophenyl)-4,5-dihydro-1H-pyrazol-1-yl)methanone] | 0.1 to 100
2 | Cc1c(-c2cc(OC3CN(C(=O)N4N=CC[C@H]4c4cc(F)cc(F)c4)C3)c(F)cn2)c(C)n(C)c1N [compound 206, (S)-(3-((2-(5-amino-1,2,4-trimethyl-1H-pyrrol-3-yl)-5-fluoropyridin-4-yl)oxy)azetidin-1-yl)(5-(3,5-difluorophenyl)-4,5-dihydro-1H-pyrazol-1-yl)methanone] | 0.1 to 100
3 | Cc1c(N)nn(C)c1-c1ncc(F)c(OC2CN(C(=O)N3N=CC[C@H]3c3cc(F)cc(F)c3)C2)n1 [compound 207, (S)-(3-((2-(3-amino-1,4-dimethyl-1H-pyrazol-5-yl)-5-fluoropyrimidin-4-yl)oxy)azetidin-1-yl)(5-(3,5-difluorophenyl)-4,5-dihydro-1H-pyrazol-1-yl)methanone] | 0.1 to 100
4 | Cc1cnn(C)c1-c1cnc(F)c(OC2CN(C(=O)N3N=CC[C@H]3c3cc(F)cc(F)c3)C2)c1 [compound 208, (S)-(5-(3,5-difluorophenyl)-4,5-dihydro-1H-pyrazol-1-yl)(3-((5-(1,4-dimethyl-1H-pyrazol-5-yl)-2-fluoropyridin-3-yl)oxy)azetidin-1-yl)methanone] | 0.1 to 100
5 | Cc1nn(C)c(-c2cc(OC3CN(C(=O)N4N=CC[C@H]4c4cc(F)cc(F)c4)C3)c(F)cn2)c1N [compound 209, (S)-(3-((2-(4-amino-1,3-dimethyl-1H-pyrazol-5-yl)-5-fluoropyridin-4-yl)oxy)azetidin-1-yl)(5-(3,5-difluorophenyl)-4,5-dihydro-1H-pyrazol-1-yl)methanone] | 0.1 to 100
6 | Cc1nn(C)c(N)c1-c1cc(OC2CN(C(=O)N3N=CC[C@H]3c3cc(F)cc(F)c3)C2)c(F)cn1 [compound 210, (S)-(3-((2-(5-amino-1,3-dimethyl-11H-pyrazol-4-yl)-5-fluoropyridin-4-yl)oxy)azetidin-1-yl)(5-(3,5-difluorophenyl)-4,5-dihydro-1H-pyrazol-1-yl)methanone] | 0.1 to 100
7 | Cc1c(CN)nn(C)c1-c1cc(OC2CN(C(=O)N3N=CC[C@H]3c3cc(F)cc(F)c3)C2)c(F)cn1 [compound 211, (S)-(3-((2-(3-(aminomethyl)-1,4-dimethyl-11H-pyrazol-5-yl)-5-fluoropyridin-4-yl)oxy)azetidin-1-yl)(5-(3,5-difluorophenyl)-4,5-dihydro-1H-pyrazol-1-yl)methanone] | 0.1 to 100
8 | Cc1c(NCCO)nn(C)c1-c1cc(OC2CN(C(=O)N3N=CC[C@H]3c3cc(F)cc(F)c3)C2)c(F)cn1 [compound 212, (S)-(5-(3,5-difluorophenyl)-4,5-dihydro-1H-pyrazol-1-yl)(3-((5-fluoro-2-(3-((2-hydroxyethyl)amino)-1,4-dimethyl-1H-pyrazol-5-yl)pyridin-4-yl)oxy)azetidin-1-yl)methanone] | 0.1 to 100
9 | Cc1c(N2CC(O)C2)nn(C)c1-c1cc(OC2CN(C(=O)N3N=CC[C@H]3c3cc(F)cc(F)c3)C2)c(F)cn1 [compound 213, (S)-(5-(3,5-difluorophenyl)-4,5-dihydro-1H-pyrazol-1-yl)(3-((5-fluoro-2-(3-(3-hydroxyazetidin-1-yl)-1,4-dimethyl-1H-pyrazol-5-yl)pyridin-4-yl)oxy)azetidin-1-yl)methanone] | 0.1 to 100
10 | Cc1nn(-c2cc(OC3CN(C(=O)N4N=CC[C@H]4c4cc(F)cc(F)c4)C3)c(F)cn2)c(C)c1C(=O)NCCO [compound 214, (S)-1-(4-((1-(5-(3,5-difluorophenyl)-4,5-dihydro-1H-pyrazole-1-carbonyl)azetidin-3-yl)oxy)-5-fluoropyridin-2-yl)-N-(2-hydroxyethyl)-3,5-dimethyl-1H-pyrazole-4-carboxamide] | 0.1 to 100
11 | Cc1c(N)nn(C)c1-c1ccc(F)c(OC2CN(C(=O)N3N=CC[C@H]3c3cc(F)cc(F)c3)C2)n1 [compound 215, (S)-(3-((6-(3-amino-1,4-dimethyl-1H-pyrazol-5-yl)-3-fluoropyridin-2-yl)oxy)azetidin-1-yl)(5-(3,5-difluorophenyl)-4,5-dihydro-1H-pyrazol-1-yl)methanone] | 0.1 to 100
12 | Cc1nn(-c2cc(OC3CN(C(=O)N4N=CC[C@H]4c4cc(F)cc(F)c4)C3)c(F)cn2)c(C)c1C(=O)NC1CCOCC1 [compound 216, (S)-1-(4-((1-(5-(3,5-difluorophenyl)-4,5-dihydro-1H-pyrazole-1-carbonyl)azetidin-3-yl)oxy)-5-fluoropyridin-2-yl)-3,5-dimethyl-N-(tetrahydro-2H-pyran-4-yl)-1H-pyrazole-4-carboxamide] | 0.1 to 100
13 | Cc1nn(-c2cc(OC3CN(C(=O)N4N=CC[C@H]4c4cc(F)cc(F)c4)C3)c(F)cn2)c(C)c1C(=O)NC1COC1 [compound 217, (S)-1-(4-((1-(5-(3,5-difluorophenyl)-4,5-dihydro-1H-pyrazole-1-carbonyl)azetidin-3-yl)oxy)-5-fluoropyridin-2-yl)-3,5-dimethyl-N-(oxetan-3-yl)-1H-pyrazole-4-carboxamide] | 0.1 to 100
14 | Cc1c(-c2cc(OC3CN(C(=O)N4N=CC[C@H]4c4cc(F)cc(F)c4)C3)c(F)cn2)nn(C)c1N [compound 218, (S)-(3-((2-(5-amino-1,4-dimethyl-1H-pyrazol-3-yl)-5-fluoropyridin-4-yl)oxy)azetidin-1-yl)(5-(3,5-difluorophenyl)-4,5-dihydro-1H-pyrazol-1-yl)methanone] | 0.1 to 100
15 | Cc1cn(C)nc1-c1cc(OC2CN(C(=O)N3N=CC[C@H]3c3cc(F)cc(F)c3)C2)c(F)cn1 [compound 219, (S)-(5-(3,5-difluorophenyl)-4,5-dihydro-1H-pyrazol-1-yl)(3-((2-(1,4-dimethyl-1H-pyrazol-3-yl)-5-fluoropyridin-4-yl)oxy)azetidin-1-yl)methanone] | 0.1 to 100
16 | Cc1nn(-c2cc(OC3CN(C(=O)N4N=CC[C@H]4c4cc(F)cc(F)c4)C3)c(F)cn2)c(C)c1S(N)(=O)=O [compound 220, (S)-1-(4-((1-(5-(3,5-difluorophenyl)-4,5-dihydro-1H-pyrazole-1-carbonyl)azetidin-3-yl)oxy)-5-fluoropyridin-2-yl)-3,5-dimethyl-1H-pyrazole-4-sulfonamide] | 0.1 to 100
17 | Cc1cc(C)n(-c2cc(OC3CN(C(=O)N4N=CC[C@H]4c4cc(F)cc(F)c4)C3)c(F)cn2)n1 [compound 221, (S)-(5-(3,5-difluorophenyl)-4,5-dihydro-1H-pyrazol-1-yl)(3-((2-(3,5-dimethyl-1H-pyrazol-1-yl)-5-fluoropyridin-4-yl)oxy)azetidin-1-yl)methanone] | 0.1 to 100
18 | Cc1nn(-c2cc(OC3CN(C(=O)N4N=CC[C@H]4c4cc(F)cc(F)c4)C3)c(F)cn2)c(C)c1CC(=O)N1CCC1 [compound 222, (S)-1-(azetidin-1-yl)-2-(1-(4-((1-(5-(3,5-difluorophenyl)-4,5-dihydro-1H-pyrazole-1-carbonyl)azetidin-3-yl)oxy)-5-fluoropyridin-2-yl)-3,5-dimethyl-1H-pyrazol-4-yl)ethan-1-one] | 0.1 to 100
19 | Cc1nn(-c2cc(OC3CN(C(=O)N4N=CC[C@H]4c4cc(F)cc(F)c4)C3)c(F)cn2)c(C)c1CC(=O)NCCO [compound 223, (S)-2-(1-(4-((1-(5-(3,5-difluorophenyl)-4,5-dihydro-1H-pyrazole-1-carbonyl)azetidin-3-yl)oxy)-5-fluoropyridin-2-yl)-3,5-dimethyl-1H-pyrazol-4-yl)-N-(2-hydroxyethyl)acetamide] | 0.1 to 100
20 | Cc1nn(-c2cc(OC3CN(C(=O)N4N=CC[C@H]4c4cc(F)cc(F)c4)C3)c(F)cn2)c(C)c1CC(=O)N1CCOCC1 [compound 224, (S)-2-(1-(4-((1-(5-(3,5-difluorophenyl)-4,5-dihydro-1H-pyrazole-1-carbonyl)azetidin-3-yl)oxy)-5-fluoropyridin-2-yl)-3,5-dimethyl-1H-pyrazol-4-yl)-1-morpholinoethan-1-one] | 0.1 to 100
21 | Cc1nn(-c2cc(OC3CN(C(=O)N4N=CC[C@H]4c4cc(F)cc(F)c4)C3)c(F)cn2)c(C)c1CC(N)=O [compound 225, (S)-2-(1-(4-((1-(5-(3,5-difluorophenyl)-4,5-dihydro-1H-pyrazole-1-carbonyl)azetidin-3-yl)oxy)-5-fluoropyridin-2-yl)-3,5-dimethyl-1H-pyrazol-4-yl)acetamide] | 0.1 to 100
22 | CNC(=O)Cc1c(C)nn(-c2cc(OC3CN(C(=O)N4N=CC[C@H]4c4cc(F)cc(F)c4)C3)c(F)cn2)c1C [compound 226, (S)-2-(1-(4-((1-(5-(3,5-difluorophenyl)-4,5-dihydro-1H-pyrazole-1-carbonyl)azetidin-3-yl)oxy)-5-fluoropyridin-2-yl)-3,5-dimethyl-1H-pyrazol-4-yl)-N-methylacetamide] | 0.1 to 100
23 | Cc1nn(-c2cc(OC3CN(C(=O)N4N=CC[C@H]4c4cc(F)cc(F)c4)C3)c(F)cn2)c(C)c1SCc1ccccc1 [compound 227, (S)-(3-((2-(4-(benzylthio)-3,5-dimethyl-1H-pyrazol-1-yl)-5-fluoropyridin-4-yl)oxy)azetidin-1-yl)(5-(3,5-difluorophenyl)-4,5-dihydro-1H-pyrazol-1-yl)methanone] | 0.1 to 100
24 | Cc1onc(N)c1-c1cc(OC2CN(C(=O)N3N=CC[C@H]3c3cc(F)cc(F)c3)C2)c(F)cn1 [compound 228, (S)-(3-((2-(3-amino-5-methylisoxazol-4-yl)-5-fluoropyridin-4-yl)oxy)azetidin-1-yl)(5-(3,5-difluorophenyl)-4,5-dihydro-1H-pyrazol-1-yl)methanone] | 0.1 to 100
25 | Cc1c(-c2cc(OC3CN(C(=O)N4N=CC[C@H]4c4cc(F)cc(F)c4)C3)c(F)cn2)nn(C)c1C(N)=O [compound 229, (S)-3-(4-((1-(5-(3,5-difluorophenyl)-4,5-dihydro-1H-pyrazole-1-carbonyl)azetidin-3-yl)oxy)-5-fluoropyridin-2-yl)-1,4-dimethyl-1H-pyrazole-5-carboxamide] | 0.1 to 100
